Experimental findings from ChEMBL document CHEMBL1201862, “PubChem BioAssay data set” (2004) are described below.

Among the test systems are NCI-H226; U-251; MOLT-4; ACHN; SR; HCT-15; RXF 393; SN12C; OVCAR-4; SK-MEL-5; HOP-62; NCI-H23; K562; SW-620; A498; SNB-75; OVCAR-5; COLO 205; Malme-3M; MCF7.
Holding throughout (test): inhibition of tumour cell growth, NCI panel, 48 h

Each structure is given as a SMILES string.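 Tested at 5 concentrations; 48 h exposure; 96-well plates; endpoints linearly interpolated, else capped at highest concentration. GI50 marks 50% less growth.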 Calls of active or inactive are those of the source. No stated cut-off is given here; in the data, active = GI50 up to about 1.1 µM and inactive = higher. Where only a bound is given, the exact number is not on record here.

Regarding `Cc1ccc(C)c(NC(=O)C(=O)C(C(=O)c2ccc3ccccc3c2)C2OC(=O)c3ccccc32)c1` (stereo not given), the GI50 in the test on NCI-H226 was 2.44 µM (inactive); in the test on U-251 it was 4.19 µM (inactive); in the test on MOLT-4, 5.25 µM (inactive); with ACHN it was 26.5 µM (inactive); in the test on SR, 4.45 µM (inactive); with HCT-15, 21.5 µM. Also, the GI50 in the test with RXF 393 is 2.97 µM (inactive); in the test with SN12C, 15.7 µM (inactive); in the test with OVCAR-4 it was 21.9 µM (inactive); in the test with SK-MEL-5 it was 17.2 µM (inactive); in the test on HOP-62, 20.2 µM (inactive); in the test with NCI-H23, 15.6 µM (inactive). Further, the GI50 in the test with K562 was 25.7 µM (inactive); with SW-620, 11.2 µM (inactive); in the test on A498 it was 16.8 µM (inactive); with SNB-75 it was 12.4 µM (inactive); in the test with OVCAR-5, 14.9 µM (inactive); with COLO 205 it was 15.8 µM (inactive).

As for `OC1CCSc2ccccc21` (stereo not given), the GI50 in the test on NCI-H226 was > 100 µM (inactive); in the test with U-251 it was > 100 µM (inactive); with MOLT-4, > 100 µM (inactive); in the test on ACHN, > 100 µM (inactive); in the test on SR, > 100 µM (inactive); in the test with HCT-15, more than 100 µM. Also, the GI50 with RXF 393, in the test with SN12C, with OVCAR-4, in the test on SK-MEL-5, in the test on HOP-62 and in the test on NCI-H23 was > 100 µM (inactive) each time. Further, the GI50 in the test on K562, with Malme-3M, in the test with SW-620, in the test with OVCAR-5 and in the test with COLO 205 was > 100 µM (inactive) each time.

As for `CC[C@@]1(O)C[C@H](OC2CC(N(C)C)C(O)C(C)O2)c2c(cc3c(c2O)C(=O)c2c(O)ccc(O)c2C3=O)[C@H]1C(=O)OC` (stereo not given in full), the GI50 in the test on NCI-H226 was 0.108 µM (active); in the test with U-251, 0.0405 µM (active); in the test on MOLT-4, 0.0252 µM (active); in the test on HCT-15, 0.0452 µM; in the test on RXF 393, 0.0366 µM (active); in the test on SN12C, 0.0377 µM (active). For the same compound, the GI50 is 0.029 µM (active) with OVCAR-4; 0.0938 µM (active) in the test with SK-MEL-5; 0.107 µM (active) in the test with HOP-62; 0.11 µM (active) with NCI-H23; 0.0885 µM (active) with MCF7; 0.0292 µM (active) in the test on K562. The GI50 with Malme-3M was 0.0807 µM (active); in the test on SW-620, 0.0267 µM (active); in the test with A498, 0.0448 µM (active); in the test on SNB-75, 0.0826 µM (active); in the test with OVCAR-5 it was 0.141 µM (active); with COLO 205 it was 0.0467 µM (active).

In the case of `O=C(Nc1ccc(Cl)cc1)C(=O)C(C(=O)c1ccccc1-c1ccccc1)C1OC(=O)c2ccccc21` (stereo not given), the GI50 in the test with NCI-H226 was 6.34 µM (inactive); with U-251, 14 µM (inactive); with MOLT-4, 29.4 µM (inactive); with ACHN it was 32.4 µM (inactive); with SR, 17.6 µM (inactive); with HCT-15, 17.6 µM. In addition, the GI50 in the test with RXF 393 is 11.6 µM (inactive); in the test with SN12C, 19.3 µM (inactive); with OVCAR-4 it was 35.5 µM (inactive); in the test on SK-MEL-5 it was 14.5 µM (inactive); in the test with HOP-62 it was 26.4 µM (inactive); in the test on NCI-H23, 23.1 µM (inactive). In addition, the GI50 in the test with K562 was 34.4 µM (inactive); in the test on SW-620, 22.4 µM (inactive); in the test with A498 it was 16.4 µM (inactive); in the test with SNB-75, 31.4 µM (inactive); with OVCAR-5, 28.3 µM (inactive); in the test on COLO 205, 21.7 µM (inactive).

For the compound `O=C(N/C=C1\C(=O)Oc2ccccc2C1=O)NC1CCCCC1`, the GI50 in the test on NCI-H226 was 41.1 µM (inactive); in the test with MOLT-4 it was 62.7 µM (inactive); with ACHN, 30.5 µM (inactive); in the test on SR, > 100 µM (inactive); in the test on HCT-15 it was 37.3 µM; in the test with RXF 393 it was 19.9 µM (inactive). Moreover, the GI50 was 39.7 µM (inactive) in the test on SN12C; 77.8 µM (inactive) in the test with OVCAR-4; > 100 µM (inactive) in the test with SK-MEL-5; 68.4 µM (inactive) in the test with HOP-62; 69 µM (inactive) with NCI-H23; 98.4 µM (inactive) in the test on SW-620. For the same compound, the GI50 with OVCAR-5 and in the test with COLO 205 was > 100 µM (inactive) throughout.

As to `CC(C)=CC1CC(=O)C1(C)Sc1ccccc1` (stereo not given), the GI50 with NCI-H226 is 34.4 µM (inactive); in the test with U-251, 67 µM (inactive); in the test on MOLT-4, 34.4 µM (inactive); with ACHN it was > 100 µM (inactive); in the test on SR, 20 µM (inactive); in the test with HCT-15, 17.3 µM. The GI50 was 26.2 µM (inactive) in the test on RXF 393; 71.8 µM (inactive) with SN12C; > 100 µM (inactive) in the test on OVCAR-4; 33.3 µM (inactive) in the test with SK-MEL-5; > 100 µM (inactive) in the test on HOP-62; 56.4 µM (inactive) with NCI-H23. The GI50 with K562 was 21.9 µM (inactive); in the test on Malme-3M it was > 100 µM (inactive); in the test on A498 it was 56.2 µM (inactive); in the test with SNB-75, 65.2 µM (inactive); in the test on OVCAR-5, > 100 µM (inactive); in the test on COLO 205, 23.1 µM (inactive).

As for `Cc1cc(O)c(C(C)C)cc1SC#N`, the GI50 with U-251 is 16.9 µM (inactive); in the test with MOLT-4 it was 3.15 µM (inactive); in the test with ACHN, 16.2 µM (inactive); in the test with HCT-15 it was 17.3 µM; in the test on RXF 393 it was 15.5 µM (inactive); in the test with OVCAR-4 it was 13.5 µM (inactive). The GI50 was 19.6 µM (inactive) in the test with SK-MEL-5; 21 µM (inactive) in the test with HOP-62; 17.2 µM (inactive) in the test on NCI-H23; 14.9 µM (inactive) in the test with MCF7; 6.3 µM (inactive) in the test on K562; 17.4 µM (inactive) in the test on Malme-3M. Further, the GI50 is 17.3 µM (inactive) in the test with SW-620, 17.1 µM (inactive) in the test on A498, 10.4 µM (inactive) with SNB-75 and 19.4 µM (inactive) in the test with COLO 205.

Regarding `COc1cc(O)c2c(c1)C(=O)c1cc3c(c(O)c1C2=O)C(OC1OC(C)C(O)C(O)C1OC)C(OC)C(C)(O)C3=O` (stereo not given), the GI50 in the test with NCI-H226 is 3.48 µM (inactive); with U-251, 3.39 µM (inactive); in the test on HCT-15 it was 2.32 µM; with RXF 393 it was 1.22 µM (inactive); with SN12C, 1.9 µM (inactive); with OVCAR-4, 0.476 µM (active). The GI50 is 0.865 µM (active) in the test on SK-MEL-5; 3.82 µM (inactive) with HOP-62; 2.06 µM (inactive) in the test with NCI-H23; 2.54 µM (inactive) with MCF7; 0.893 µM (active) with Malme-3M; 1.08 µM (active) in the test with SW-620. For the same compound, the GI50 was 2.04 µM (inactive) in the test with A498, 3.57 µM (inactive) in the test with SNB-75, 4.43 µM (inactive) in the test on OVCAR-5 and 0.76 µM (active) with COLO 205.
